Source: publication PMC5522078, “Discovery and characterization of small molecules targeting the DNA-binding ETS domain of ERG in prostate cancer” (Oncotarget, 2017)

Key:
VCaP cells = system: VCaP cells; parameters: method as in PMID 21559405; details: read-out: IC50 for cytotoxicity in VCaP cells; cited from earlier work
[1] = Murine pharmacodynamics and toxicology studies; type: in vivo, mice
Procedure: Supplementary Figure 10: (A) In a preliminary study to evaluate in vivo toxicity and establish working oral (PO) doses, Nu/nu mice (n = 4) received a single PO dose of VPC-18005 (100 mg/kg or 500 mg/kg) dissolved in cyclodextrin. Blood was collected directly after injection and at the times indicated. Serum concentration of VPC-18005 was determined for each time point. (B) In a 4 week “repeated dose” study, body weight was measured daily for mice (n = 4) that received a daily dose of VPC-18005 (150 mg/kg BID) dissolved 50% ethanol (PO) or 50% ethanol (Vehicle). Change in weight of each animal was normalized to starting pretreatment weight. (C) Cytotoxicity serum markers of vehicle and VPC-18005 treated animals described in B) were determined and presented as average (Avg. Conc.) and standard deviation (SD) with corresponding paired t-test p values. LC-MS analysis of serum indicators of major organ toxicity (albumin (ALB), alkaline phosphatase (ALP) and alanine aminotransferase (ALT) as indicators of liver dysfunction, amylase (AMY) to test for acute pancreatitis, total bilirubin (TBIL) to assess jaundice, and blood urea nitrogen (BUN) to assess kidney function from endpoint samples

androgen receptor = biological target: T1, androgen receptor (Homo sapiens, UniProt P10275); assay: Androgen receptor luciferase reporter (ARR3tk-luc) assay; type: cell-based; details: PC3 cells transfected with AR; 1 nM R1881; 1, 5 or 10 μM
T1 construct: expressed in transfected cells; host or cells: PC3
T1 sequence (P10275 1-920): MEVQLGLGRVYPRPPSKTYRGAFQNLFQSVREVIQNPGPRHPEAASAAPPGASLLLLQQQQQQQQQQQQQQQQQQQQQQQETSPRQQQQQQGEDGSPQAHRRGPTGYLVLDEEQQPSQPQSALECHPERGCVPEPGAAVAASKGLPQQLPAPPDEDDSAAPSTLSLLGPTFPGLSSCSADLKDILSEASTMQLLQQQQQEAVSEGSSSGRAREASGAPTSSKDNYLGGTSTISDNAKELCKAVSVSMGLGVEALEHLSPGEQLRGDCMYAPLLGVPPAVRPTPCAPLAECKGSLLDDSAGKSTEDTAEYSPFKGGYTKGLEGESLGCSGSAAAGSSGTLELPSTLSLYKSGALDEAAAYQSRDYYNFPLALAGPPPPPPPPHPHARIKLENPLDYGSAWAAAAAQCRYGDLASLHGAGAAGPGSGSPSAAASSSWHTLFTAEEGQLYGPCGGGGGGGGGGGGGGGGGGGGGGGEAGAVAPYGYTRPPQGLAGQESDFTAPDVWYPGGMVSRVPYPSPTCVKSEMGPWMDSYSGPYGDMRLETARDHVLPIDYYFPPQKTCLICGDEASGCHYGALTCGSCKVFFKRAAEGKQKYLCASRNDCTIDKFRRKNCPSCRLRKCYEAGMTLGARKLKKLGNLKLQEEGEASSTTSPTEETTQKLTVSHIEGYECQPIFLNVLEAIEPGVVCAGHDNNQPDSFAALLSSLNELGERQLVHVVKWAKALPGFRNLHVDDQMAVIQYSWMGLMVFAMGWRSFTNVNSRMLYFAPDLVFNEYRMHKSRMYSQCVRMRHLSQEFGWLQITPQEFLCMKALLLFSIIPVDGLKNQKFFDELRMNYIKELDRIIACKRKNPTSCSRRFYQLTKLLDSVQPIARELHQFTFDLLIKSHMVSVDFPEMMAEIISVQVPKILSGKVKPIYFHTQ
Procedure: (§1) All of the compounds selected from the virtual screening were tested in a luciferase-based ERG-responsive reporter assay, using two ERG-overexpressing cell lines, VCaP and PNT1B-ERG, previously developed in house. […] Data were normalized first to Renilla luciferase and then to the DMSO-media control on each plate, unless otherwise stated. Initial hit compounds were identified as those with an average normalized luciferase reading (firefly luciferase/Renilla luciferase readings) that is 60% or less of the average normalized luciferase reading of the DMSO-media control (i.e. 40% or more reduction of luciferase activity) at 10 μM. Representative example of raw Renilla luciferase readings presented in Supplementary Figure 9B. […]
(§2) Supplementary Figure 3: VPC-18005 selectively suppresses ERG-mediated transcriptional activity. […] Data are presented as the mean ± SEM of 4 technical replicates and expressed as luciferase:renilla ratio (activity).
(§3) (B) Luciferase assay was performed on VCaP cells transfected with ETS responsive luciferase reporter and treated with DMSO (0) or 0.1, 1, or 10 nM R1881 in the presence of 25 μM of VPC-18005. Data are presented as the mean ± SEM of 4 technical replicates and expressed as the luciferase:renilla ratio relative to VPC-18005 alone. […]

PNT1B-MOCK cells = assay: pETS-luc luciferase assay in PNT1B-MOCK cells (non-specific effect); type: cell-based, human; details: increasing concentrations, 48 h; compared to PNT1B-ERG cells
Procedure: as §1, §2, §3

ETS domain of ETV4 = biological target: T2, ETS domain of ETV4 (Homo sapiens, UniProt P43268); assay: Preliminary NMR spectroscopic experiments, ETV4; type: binding
T2 sequence (P43268 341-421 limits assumed): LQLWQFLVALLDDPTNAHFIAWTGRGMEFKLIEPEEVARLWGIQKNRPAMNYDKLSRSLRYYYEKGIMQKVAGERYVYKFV

COc1ccc(C(=O)CC2(O)C(=O)Nc3c(Cl)ccc(Cl)c32)cc1 (centres unmarked) [YK-4-279, reference compound]
IC50 (VCaP cells): 10 µM

CC(C)c1ccc(C=N/N=C2\NC(=O)[C@@H](CC(=O)O)S2)cc1 (stereo in doubt) [VPC-18005, 2-((Z)-2-(((Z)-4-isopropylbenzylidene)hydrazono)-4-oxothiazolidin-5-yl)acetic acid]
Solubility, stability and oral bioavailability in mice ([1]; Nu/nu mice, PO): soluble, stable and orally bioavailable | Serum indicators of major organ toxicity (ALB, ALP, ALT, AMY, TBIL, BUN) ([1]; mice, 150 mg/kg BID, 4 weeks, endpoint samples): no significant impact | General toxicity, repeated dose ([1]; mice, 4 week BID at 150 mg/kg PO): does not exhibit general toxicity | General toxicity, single dose ([1]; mice, single doses of up to 500 mg/kg PO): does not exhibit general toxicity | Effect on androgen receptor luciferase reporter (ARR3tk-luc) expression (androgen receptor): no significant effect | Impact on the reporter signal in PNT1B-MOCK (PNT1B-MOCK cells): minimal impact | Interaction with the ETS domain of ETV4 (ETS domain of ETV4): interacts
